This passage reports IC50 results from publication PMC4513211, “Inhibition of voltage-gated sodium channels by sumatriptan bioisosteres” (Frontiers in Pharmacology, 2015).

The target of assay [1] is T1, hNav1.4 (Homo sapiens, UniProt P35499).
T1 construct: gene SCN4A
The assay is described as follows: whole-cell patch clamp, peak INa. The class given is cell-based. The conditions noted are these: read-out: 0.1 Hz / IC50. From the text:
(§1) whole-cell patch clamp, peak INa on hNav1.4
(In patch-clamp work, channel activity is measured electrically.)

Assay [2] deals with T2, hNav1.4 (Homo sapiens, UniProt P35499, F1586C).
T2 construct: gene SCN4A
T2 sequence (P35499 whole entry F1586C): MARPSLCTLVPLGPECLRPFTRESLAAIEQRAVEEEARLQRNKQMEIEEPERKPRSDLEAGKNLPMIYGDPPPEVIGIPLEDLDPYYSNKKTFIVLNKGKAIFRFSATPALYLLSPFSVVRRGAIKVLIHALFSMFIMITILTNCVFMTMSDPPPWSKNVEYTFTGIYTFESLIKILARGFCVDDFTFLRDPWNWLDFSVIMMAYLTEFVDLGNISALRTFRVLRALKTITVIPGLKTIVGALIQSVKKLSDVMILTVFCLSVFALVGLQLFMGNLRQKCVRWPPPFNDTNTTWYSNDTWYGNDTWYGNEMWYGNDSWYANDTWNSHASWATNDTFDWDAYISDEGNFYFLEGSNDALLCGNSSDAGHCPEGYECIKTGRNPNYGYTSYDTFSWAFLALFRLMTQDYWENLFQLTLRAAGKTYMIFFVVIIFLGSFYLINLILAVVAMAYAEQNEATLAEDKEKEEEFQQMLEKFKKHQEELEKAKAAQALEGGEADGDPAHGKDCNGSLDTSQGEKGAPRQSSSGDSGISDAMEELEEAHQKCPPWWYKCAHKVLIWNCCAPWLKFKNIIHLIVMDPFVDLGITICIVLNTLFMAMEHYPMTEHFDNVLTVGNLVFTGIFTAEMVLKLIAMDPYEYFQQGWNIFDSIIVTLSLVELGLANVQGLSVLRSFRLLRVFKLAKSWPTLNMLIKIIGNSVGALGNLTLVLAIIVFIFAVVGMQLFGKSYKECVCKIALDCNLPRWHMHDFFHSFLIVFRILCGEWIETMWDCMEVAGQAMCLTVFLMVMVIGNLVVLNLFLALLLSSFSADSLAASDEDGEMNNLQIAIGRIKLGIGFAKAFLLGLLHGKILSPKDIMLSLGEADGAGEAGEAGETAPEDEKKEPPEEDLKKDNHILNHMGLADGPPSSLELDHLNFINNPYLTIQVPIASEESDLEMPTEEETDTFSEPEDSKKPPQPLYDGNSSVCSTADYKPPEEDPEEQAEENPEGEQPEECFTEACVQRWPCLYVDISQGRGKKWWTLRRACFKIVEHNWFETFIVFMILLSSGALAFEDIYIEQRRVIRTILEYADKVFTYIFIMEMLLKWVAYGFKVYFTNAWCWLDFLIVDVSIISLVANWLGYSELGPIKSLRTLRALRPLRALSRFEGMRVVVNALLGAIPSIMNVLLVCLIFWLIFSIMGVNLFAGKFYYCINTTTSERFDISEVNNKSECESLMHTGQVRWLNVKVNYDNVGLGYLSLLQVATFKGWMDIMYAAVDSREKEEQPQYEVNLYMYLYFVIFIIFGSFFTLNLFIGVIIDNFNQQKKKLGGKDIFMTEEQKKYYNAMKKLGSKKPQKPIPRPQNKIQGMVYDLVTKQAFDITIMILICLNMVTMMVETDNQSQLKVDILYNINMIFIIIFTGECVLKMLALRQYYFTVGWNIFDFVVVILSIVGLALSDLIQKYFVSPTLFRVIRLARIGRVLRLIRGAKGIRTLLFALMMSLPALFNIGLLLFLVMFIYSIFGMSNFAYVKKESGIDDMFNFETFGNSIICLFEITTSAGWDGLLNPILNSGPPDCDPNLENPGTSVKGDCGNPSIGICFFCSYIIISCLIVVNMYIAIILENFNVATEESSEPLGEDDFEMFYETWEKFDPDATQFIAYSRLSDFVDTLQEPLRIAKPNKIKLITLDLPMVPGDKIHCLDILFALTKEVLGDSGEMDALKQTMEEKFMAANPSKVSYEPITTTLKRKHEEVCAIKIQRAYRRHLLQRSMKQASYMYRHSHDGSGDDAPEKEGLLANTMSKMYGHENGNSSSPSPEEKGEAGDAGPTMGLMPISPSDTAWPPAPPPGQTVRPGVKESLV
The assay is described as follows: whole-cell patch clamp, peak INa. It counts as cell-based. The conditions noted are these: read-out: 0.1 Hz / IC50.
Excerpt: as §1

T1 sequence (P35499 whole entry): as the sequence (P35499 whole entry F1586C) above, with C1586F counted along it

For `CNC[C@H](C)Oc1cccc2ccccc12` [(S)-22b], the IC50 came to 51 ± 2 µM at hNav1.4 [1] and 215 ± 5 µM at hNav1.4 [2].
